Reference: patent publication US5624948A, “1-(2-benzimidazolyl)-1,5-diazacyclooctane compounds” (Kissei Pharmaceutical Co., Ltd., priority 1993, dated 1997)

Experiments:
in vitro = format: cell-based; settings: human, nhek keratinocytes
Method: The 1-(2-benzimidazolyl)-1,5-diazacyclooctane compounds of the present invention show a weak cytotoxicity toward normal human epidermal keratinocytes (NHEK) growth. […] In comparison, the NR50 value of Astemizole is about 4.42 μM.

bronchial tissues = settings: topical formulation applied to the bronchia; cited from earlier work
[1] = system: DNP-As-induced bronchoconstriction; assay: guinea pig antigen-induced bronchoconstriction model (DNP-As-induced, inhalation of compound); format: in vivo; settings: 0.01 mg/ml solution, inhalation for 1 minute with ultrasonic nebulizer, DNP-As 100 μg protein/ml, 1 ml/kg, i.v.
Excerpt: In the guinea pig antigen-induced bronchoconstriction model, the 1-(2-benzimidazolyl)-1,5-diazacyclooctane compounds of the present invention also show a potent antiallergic activity and a long-lasting efficacy.

histamine H1-receptor = molecular target: T1, histamine H1-receptor (Cavia porcellus, UniProt P31389); assay: receptor binding assay in blocking 3H-pyrilamine binding to histamine H1-receptor site in guinea pig cerebellum; settings: read-out: 50% inhibitory activity (concentration producing 50% reduction of the binding of the labeled ligand)
T1 construct: histamine H1 -receptor site in guinea pig cerebellum; from tissue; host or cells: guinea pig cerebellum
Excerpt: The pharmacological activity of the 1-(2-benzimidazolyl)-1,5-diazacyclooctane compounds of the present invention can be confirmed by receptor binding assay in blocking 3H-pyrilamine binding to histamine H1 -receptor site in guinea pig cerebellum. The 1-(2-benzimidazolyl)-1,5-diazacyclooctane compounds of the present invention show a potent histamine H1 -receptor antagonistic activity, and produce a 50% inhibitory activity in a range of about 10^-10 to 10^-8 M (concentration producing 50% reduction of the binding of the labeled ligand).

T1 sequence (P31389 whole entry): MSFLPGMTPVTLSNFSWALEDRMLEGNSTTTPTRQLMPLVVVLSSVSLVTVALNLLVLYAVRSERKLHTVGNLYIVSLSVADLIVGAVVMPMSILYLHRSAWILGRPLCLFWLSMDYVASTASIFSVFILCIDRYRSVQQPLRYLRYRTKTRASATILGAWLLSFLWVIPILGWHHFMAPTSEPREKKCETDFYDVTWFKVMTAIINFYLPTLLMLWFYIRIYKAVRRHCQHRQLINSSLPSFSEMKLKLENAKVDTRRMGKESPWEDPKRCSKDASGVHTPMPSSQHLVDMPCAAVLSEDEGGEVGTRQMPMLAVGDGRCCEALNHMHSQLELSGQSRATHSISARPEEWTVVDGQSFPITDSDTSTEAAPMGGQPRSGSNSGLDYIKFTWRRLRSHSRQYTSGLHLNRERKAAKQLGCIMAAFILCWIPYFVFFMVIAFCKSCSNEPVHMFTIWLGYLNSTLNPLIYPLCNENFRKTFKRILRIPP

IC50 (histamine H1-receptor)	SMILES	CC50 (in vitro)	irritation to bronchial tissues (in words) (bronchial tissues)	inhibition of DNP-As-induced bronchoconstriction at 4 hours after inhalation [1]	inhibition of DNP-As-induced bronchoconstriction at 8 hours after inhalation [1]
	COc1ccc(CCN2CCC(Nc3nc4ccccc4n3Cc3ccc(F)cc3)CC2)cc1 [Astemizole]	~4.42 µM	strong irritation to bronchial tissues	about 37.5%	about 29.3%
~0.000575 µM	O=C(O)CCc1ccc(CCN2CCCN(c3nc4ccccc4n3Cc3ccc(F)cc3)CCC2)cc1 [Compound 16, 5-[2-[4-(2-Carboxyethyl)phenyl]ethyl]-1-[1-(4-fluorophenylmethyl)-1H-benzimidazol-2-yl]-1,5-diazacyclooctane]	~789 µM		about 54.6%	about 44.7%
